Here are results for 69 compounds from patent US10752612B2, “PLK4 inhibitors” (LUDWIG INSTITUTE FOR CANCER RESEARCH LTD, priority 2015, dated 2020).

The target in the assay is T1, human Plk4 kinase domain (aa 2-275) (Homo sapiens, UniProt O00444).
T1 construct: purified 6×His-tagged human Plk4 kinase domain (aa 2-275); 6xHis; made in house; host or cells: E. coli
T1 sequence (O00444 2-275): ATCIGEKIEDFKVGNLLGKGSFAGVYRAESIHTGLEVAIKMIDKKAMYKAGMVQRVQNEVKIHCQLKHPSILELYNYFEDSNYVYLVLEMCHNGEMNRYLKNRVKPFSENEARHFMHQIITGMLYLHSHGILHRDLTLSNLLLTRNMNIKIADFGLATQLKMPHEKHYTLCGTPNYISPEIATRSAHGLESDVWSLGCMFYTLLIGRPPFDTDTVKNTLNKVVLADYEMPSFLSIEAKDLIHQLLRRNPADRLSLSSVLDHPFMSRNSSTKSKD
The assay is described as follows: Plk4 kinase assay (ADP-Glo). The assay is classed as biochemical. Particulars: Table 1. Summed up: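 Enzyme at 2.5-10 nM final, pH 8.0, reacted 4-16 hours at 25° C; ADP generation read by ADP-Glo luminescence. Ki derived from IC50 by Cheng-Prusoff or, for tight binders, Copeland formalism.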
On the technique in general: In ADP-Glo the light output rises with the ADP produced.

The structures appear in SMILES notation.

What is called IC50 is the midpoint of a concentration-inhibition curve. Low values mean greater potency, high ones weaker potency. As for `COc1c(Nc2cc(C)[nH]n2)nc(Sc2ccc(NC(=O)C3CC3)cc2)nc1N1CCC(O)CC1`, the IC50 was below 1000 nM. As to `COc1c(C)nc(Sc2ccc(S(=O)(=O)Cc3ccccc3)cc2)nc1Nc1cc(C)[nH]n1`, the IC50 is below 1000 nM. The value for `COc1c(Nc2cc(C)[nH]n2)nc(Sc2ccc(NC(C)=O)cc2)nc1N1CCN(C)CC1` was below 1000 nM. The value for `CCOc1c(Nc2cc(C)[nH]n2)nc(Sc2ccc(S(=O)(=O)Cc3ccccc3)cc2)nc1N1CCN(CCN2C3CCCC2CC3)CC1` was below 1000 nM.

Turning to `Cc1cc(Nc2nc(Sc3ccc(NC(=O)C4CCCC4)cc3)nc(N3CCNCC3)c2C)n[nH]1`, the IC50 was below 1000 nM. As for `CCS(=O)(=O)c1ccc(Sc2nc(Nc3cc(C)[nH]n3)c(OC)c(N3CCN(C)CC3)n2)cc1`, the figure is below 1000 nM; as for `CCS(=O)(=O)c1ccc(Sc2nc(Nc3cc(C)[nH]n3)c(OC)c(C3CCN(CCN(C)C)CC3)n2)cc1`, below 1000 nM. The value for `CC(=O)Nc1ccc(Sc2nc(Nc3cc(C)[nH]n3)c3c(n2)C2(CC3)CCN(C(=O)C(C)(C)C)CC2)cc1` was below 1000 nM. In turn, `COc1cccc(CS(=O)(=O)c2ccc(Sc3nc(Nc4cc(C)[nH]n4)c(OC)c(N4CCN(CCN(C)C)CC4)n3)cc2)c1` came in with an IC50 below 1000 nM.

With `COc1c(Nc2cc(C)[nH]n2)nc(Sc2ccc(S(=O)(=O)Cc3ccccc3C(=O)O)cc2)nc1N1CCN(CCN(C)C)CC1`, the IC50 was below 1000 nM. The value for `COc1c(Nc2cc(C)[nH]n2)nc(Sc2ccc(S(=O)(=O)c3ccccc3)cc2)nc1N1CCN(CCN(C)C)CC1` was below 1000 nM; that for `CCOc1c(Nc2cc(C)[nH]n2)nc(Sc2ccc(NC(=O)C3CC3)cc2)nc1N1CCN(CCOC)CC1` was 100 to 1000 nM. Compound `COc1c(Nc2cc(C)[nH]n2)nc(Sc2ccc(S(=O)(=O)Cc3ccccc3F)cc2)nc1N1CCOCC1` showed an IC50 below 1000 nM. As for `COc1c(Nc2cc(C)[nH]n2)nc(Sc2ccc(S(C)(=O)=O)cc2)nc1N1CCN(CCN2CCN(C)CC2)CC1`, the figure is below 1000 nM. As for `COc1c(Nc2cc(C)[nH]n2)nc(Sc2ccc(NC(C)=O)cc2)nc1N1CCN(CCN2CCCCCCC2)CC1`, the figure is below 1000 nM; as for `COc1c(Nc2cc(C)[nH]n2)nc(Sc2ccc(S(=O)(=O)Cc3ccccc3)cc2)nc1N1CCN(CCN2CCCC2)CC1`, below 1000 nM; as for `COc1c(Nc2cc(C)[nH]n2)nc(Sc2ccc(NC(C)=O)cc2)nc1C1=CCN(CCN(C)C)CC1`, below 1000 nM. For `CCOc1c(Nc2cc(C)[nH]n2)nc(Sc2ccc(NC(=O)C3CC3)cc2)nc1N(C)CC` [drawing 128], the IC50 lay in the range of 100 to 1000 nM. For the compound `COc1c(Nc2cc(C)[nH]n2)nc(Sc2ccc(S(=O)(=O)Cc3cccc(-c4ccccc4)c3)cc2)nc1N1CCN(CCN(C)C)CC1`, the IC50 was below 1000 nM. As for `COc1c(Nc2cc(C)[nH]n2)nc(Sc2ccc(S(=O)(=O)Cc3ccc(F)cc3F)cc2)nc1N1CCN(CCN(C)C)CC1`, the IC50 was below 1000 nM. Compound `COc1c(Nc2cc(C)[nH]n2)nc(Sc2ccc(S(=O)(=O)Cc3ncco3)cc2)nc1N1CCN(CCN(C)C)CC1` showed an IC50 below 1000 nM.

The compound `CC(=O)Nc1ccc(Sc2nc(Nc3cc(C)[nH]n3)c(C)c(N3CCN(CCN(C)C)CC3)n2)cc1` had an IC50 below 1000 nM. Compound `COc1c(Nc2cc(C)[nH]n2)nc(Sc2ccc(NC(C)=O)cc2)nc1N1CCC(F)(F)CC1` had an IC50 below 1000 nM. Compound `CCc1cc(Nc2nc(SC)nc(N3CCN(CCN(C)C)CC3)c2C)n[nH]1` yielded an IC50 below 1000 nM.

For the compound `COc1c(Nc2nccs2)nc(Sc2ccc(NC(C)=O)cc2)nc1N1CCN(CCN(C)C)CC1`, the IC50 is 100 to 1000 nM. The value for `COc1c(Nc2cc(CC(=O)Nc3cccc(F)c3)[nH]n2)nc(SC)nc1N1CCN(CCN(C)C)CC1` was above 1000 nM. The value for `COCCN1CCN(c2nc(Sc3ccc(NC(C)=O)cc3)nc(Nc3cc(C)[nH]n3)c2C)CC1` was below 1000 nM. As for `Cc1cc(Nc2nc(Sc3ccc(NC(=O)C4CC4)cc3)nc3c2CCC3)n[nH]1`, the figure is above 1000 nM; as for `COc1c(Nc2cc(C)[nH]n2)nc(Sc2ccc(S(=O)(=O)C(C)(C)c3cccc([N+](=O)[O-])c3F)cc2F)nc1N1CCCCC1`, below 1000 nM. Compound `CC(=O)Nc1ccc(Sc2nc(Nc3cc(C)[nH]n3)c(Cl)c(N3CCC(O)CC3)n2)cc1` displayed an IC50 below 1000 nM. Turning to `COc1c(Nc2cc(C)[nH]n2)nc(Sc2ccc(S(=O)(=O)Cc3cccc(Br)c3F)cc2F)nc1N1CCOCC1`, the IC50 was below 1000 nM. The value for `COc1c(Nc2cc(C)[nH]n2)nc(Sc2ccc(NC(C)=O)cc2)nc1N1CCC(CCN2CCCCC2)CC1` was 100 to 1000 nM; that for `COc1c(Nc2cc(C)[nH]n2)nc(Sc2ccc(S(=O)(=O)Cc3cccc([N+](=O)[O-])c3)cc2F)nc1N1CCOCC1` was below 1000 nM; that for `COc1c(Nc2cc(C)[nH]n2)nc(Sc2ccc(S(=O)(=O)Cc3ccccc3)cc2)nc1N1CCN(CCN2CCCCCC2)CC1` was below 1000 nM. As for `COc1c(Nc2cc(C)[nH]n2)nc(Sc2ccc(S(=O)(=O)Cc3cccc([N+](=O)[O-])c3)cc2)nc1N1CCO[C@H](C)C1`, the figure is below 1000 nM; as for `CCS(=O)(=O)c1ccc(Sc2nc(Nc3cc(C)[nH]n3)c(OC)c(N3CCCCC3)n2)cc1`, below 1000 nM; as for `COc1c(Nc2cc(C)[nH]n2)nc(Sc2ccc(S(=O)(=O)C(C)(C)c3c(F)c(F)cc(Cl)c3F)cc2F)nc1N1CCOCC1`, below 1000 nM.

As for `COc1c(Nc2cc(C)[nH]n2)nc(Sc2ccc(NC(=O)C3CCCC3)cc2)nc1N(C)C`, the IC50 was below 1000 nM. As for `COc1c(Nc2cc(C)[nH]n2)nc(Sc2ccc(S(=O)(=O)C(C)(C)c3cccc(Cl)c3F)cc2F)nc1N1CCN(CCN(C)C)CC1`, the figure is below 1000 nM; as for `COc1c(Nc2cc(C)[nH]n2)nc(Sc2ccc(NC(C)=O)cc2)nc1N1CCN(CCN(C)c2ccccc2)CC1`, below 1000 nM. For the compound `CCOc1c(Nc2cc(C)[nH]n2)nc(Sc2ccc(S(=O)(=O)Cc3cc(F)ccc3F)cc2)nc1N1CCN(CCN(C)C)CC1`, the IC50 is below 1000 nM. As for `COc1c(Nc2cc(C)[nH]n2)nc(Sc2ccc(S(=O)(=O)Cc3ccccc3)cc2)nc1N1CCN(Cc2ccccc2)CC1`, the figure is below 1000 nM; as for `COc1c(Nc2cc(C)[nH]n2)nc(Sc2ccc(S(=O)(=O)Cc3ccc(F)cc3)cc2)nc1N1CCN(CCN(C)C)CC1`, below 1000 nM; as for `COc1c(Nc2cc(C)[nH]n2)nc(Sc2ccc(S(=O)(=O)Cc3cccc([N+](=O)[O-])c3)cc2)nc1N1CCOC[C@@H]1CO`, below 1000 nM. The value for `COc1c(Nc2cc(CC(=O)O)[nH]n2)nc(SC)nc1N1CCN(CCN(C)C)CC1` was above 1000 nM; that for `COc1c(Nc2cc(C)[nH]n2)nc(Sc2ccc(NC(C)=O)cc2)nc1N1CCN(CCN(C)C)C(C)C1` (stereo not drawn) was below 1000 nM; that for `COc1c(Nc2cc(C)[nH]n2)nc(Sc2ccc(S(=O)(=O)C(C)(C)c3cccc([N+](=O)[O-])c3F)cc2F)nc1N1CCNCC1` was below 1000 nM. The value for `COc1c(Nc2cc(C)[nH]n2)nc(Sc2ccc(NC(C)=O)cc2)nc1N1CCN(CCN(C)C)CC1` was below 1000 nM; that for `CCN(CC)CCN1CCN(c2nc(Sc3ccc(NC(C)=O)cc3)nc(Nc3cc(C)[nH]n3)c2OC)CC1` was below 1000 nM; that for `CCOc1c(Nc2cc(C)[nH]n2)nc(Sc2ccc(NC(C)=O)cc2)nc1N1CCOCC1` was 100 to 1000 nM. The compound `CCS(=O)(=O)c1ccc(Sc2nc(Nc3cc(C)[nH]n3)c(OC)c(N3CCN(CCN(C)C)CC3)n2)cc1` showed an IC50 below 1000 nM. As for `CCN(CC)c1nc(Sc2ccc(NC(=O)C3CCCC3)cc2)nc(Nc2cc(C)[nH]n2)c1C`, the figure is 100 to 1000 nM; as for `COc1c(Nc2cc(C)[nH]n2)nc(Sc2ccc(NC(C)=O)cc2)nc1N1CCN(CCN(C)C)CC1C` (stereo not drawn), above 1000 nM. As for `COc1c(Nc2cc(C)[nH]n2)nc(Sc2ccc(NC(C)=O)nc2)nc1N1CCOCC1`, the figure is below 1000 nM.

In turn, `COCCNc1nc(Sc2ccc(NC(=O)C3CCCC3)cc2)nc(Nc2cc(C)[nH]n2)c1OC` displayed an IC50 below 1000 nM. As for `CCOc1c(Nc2cc(C)[nH]n2)nc(Sc2ccc(NC(C)=O)cc2)nc1N1CCN(C(C)=O)CC1`, the figure is 100 to 1000 nM. The value for `CCOc1c(Nc2cc(C)[nH]n2)nc(Sc2ccc(NC(=O)C3CC3)cc2)nc1N1CCCCC1` was 100 to 1000 nM. The value for `CCN(C)c1nc(Sc2ccc(NC(C)=O)cc2)nc(Nc2cc(C)[nH]n2)c1C` was below 1000 nM. In turn, `COc1c(Nc2cc(C)[nH]n2)nc(Sc2ccccc2)nc1N1CCN(CCN(C)C)CC1` had a 50% inhibitory concentration (IC50) of 100 to 1000 nM. In turn, `CC(=O)Nc1ccc(Sc2nc(Nc3cc(C)[nH]n3)c(C)c(N3CCC(N)CC3)n2)cc1` had an IC50 below 1000 nM. As for `Cc1cc(Nc2nc(Sc3ccc(NC(=O)C4CCCC4)cc3)nc(N3CCN(C4CCN(C)CC4)CC3)c2C)n[nH]1`, the figure is below 1000 nM. As for `CCN(CC)c1nc(Sc2ccc(NC(C)=O)cc2)nc(Nc2cc(C)[nH]n2)c1C`, the figure is below 1000 nM; as for `COc1c(Nc2cc(C)[nH]n2)nc(Sc2ccc(S(=O)(=O)Cc3ccccc3NC(C)=O)cc2)nc1N1CCN(CCN(C)C)CC1`, below 1000 nM; as for `COc1c(Nc2cc(C)[nH]n2)nc(Sc2ccc(S(=O)(=O)Cc3ccccc3)cc2)nc1N1CCOC[C@H]1C`, below 1000 nM. As for `CCC(=O)N1CCN(c2nc(Sc3ccc(NC(C)=O)cc3)nc(Nc3cc(C)[nH]n3)c2C)CC1`, the figure is below 1000 nM; as for `CCOc1c(Nc2cc(C)[nH]n2)nc(Sc2ccc(NC(=O)C3CC3)cc2)nc1N1CCC(O)CC1`, below 1000 nM; as for `Cc1cc(Nc2nc(Sc3ccc(NC(=O)C4CC4)cc3)nc(N3CCC(O)CC3)c2C)n[nH]1`, below 1000 nM. Compound `CNC(=O)Cc1cc(Nc2nc(SC)nc(N3CCN(CCN(C)C)CC3)c2OC)n[nH]1` returned an IC50 above 1000 nM. In turn, `CCOc1c(Nc2cc(C)[nH]n2)nc(Sc2ccc(NC(=O)C3CC3)cc2)nc1N1CCN(C(=O)COC)CC1` registered an IC50 of 100 to 1000 nM.
